Structures are written as SMILES. Like-named read-outs stand apart in the source and are kept apart here.

Test in all cases: biochemical
Common to all, as to set-up: species or system human cell line lysate

For test [1], the target named is T1, Ephrin type-B receptor 1 ; EPHB1 ; P54762 (Homo sapiens, UniProt P54762).
T1 sequence (P54762 1-984): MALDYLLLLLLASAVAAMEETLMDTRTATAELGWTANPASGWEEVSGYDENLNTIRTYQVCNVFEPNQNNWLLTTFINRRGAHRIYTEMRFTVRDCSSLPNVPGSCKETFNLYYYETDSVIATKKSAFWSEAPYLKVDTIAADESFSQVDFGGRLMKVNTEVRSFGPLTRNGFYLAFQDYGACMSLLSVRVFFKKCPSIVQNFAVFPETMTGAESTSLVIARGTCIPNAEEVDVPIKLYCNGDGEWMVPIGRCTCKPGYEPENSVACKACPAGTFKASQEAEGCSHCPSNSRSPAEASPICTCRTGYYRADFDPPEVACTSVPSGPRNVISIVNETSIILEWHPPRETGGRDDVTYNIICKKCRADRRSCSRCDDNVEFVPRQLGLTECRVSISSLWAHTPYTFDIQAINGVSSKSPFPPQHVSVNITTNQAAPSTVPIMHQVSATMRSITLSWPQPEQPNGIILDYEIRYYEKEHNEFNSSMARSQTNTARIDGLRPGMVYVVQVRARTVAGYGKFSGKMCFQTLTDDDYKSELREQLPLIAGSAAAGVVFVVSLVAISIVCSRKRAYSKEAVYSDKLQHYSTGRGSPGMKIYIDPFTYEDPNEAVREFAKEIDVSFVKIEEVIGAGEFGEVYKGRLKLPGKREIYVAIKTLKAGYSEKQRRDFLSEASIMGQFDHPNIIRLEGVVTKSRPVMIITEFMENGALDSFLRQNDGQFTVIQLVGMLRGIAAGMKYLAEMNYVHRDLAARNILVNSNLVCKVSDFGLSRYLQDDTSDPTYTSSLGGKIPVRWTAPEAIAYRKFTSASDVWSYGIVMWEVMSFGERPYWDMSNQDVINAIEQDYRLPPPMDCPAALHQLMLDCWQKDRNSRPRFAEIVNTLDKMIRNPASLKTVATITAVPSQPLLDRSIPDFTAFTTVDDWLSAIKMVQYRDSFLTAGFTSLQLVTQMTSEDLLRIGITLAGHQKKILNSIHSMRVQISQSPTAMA

The target of test [2] is Isoform 5 of Aurora kinase B ; AURKB ; Q96GD4-5 (Homo sapiens, UniProt Q96GD4).
Sequence of Isoform 5 of Aurora kinase B ; AURKB ; Q96GD4-5 (Q96GD4 whole entry, canonical isoform): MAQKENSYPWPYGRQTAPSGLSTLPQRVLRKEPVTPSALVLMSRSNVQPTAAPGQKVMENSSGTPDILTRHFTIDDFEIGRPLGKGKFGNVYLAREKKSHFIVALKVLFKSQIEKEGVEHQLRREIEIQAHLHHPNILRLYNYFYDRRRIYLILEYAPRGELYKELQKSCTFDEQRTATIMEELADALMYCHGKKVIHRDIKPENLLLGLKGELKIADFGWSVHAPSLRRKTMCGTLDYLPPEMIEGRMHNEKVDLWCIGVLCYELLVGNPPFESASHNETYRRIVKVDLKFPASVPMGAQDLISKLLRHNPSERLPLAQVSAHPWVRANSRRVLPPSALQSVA
Test [3] has as its target Serine/threonine-protein kinase SIK3 ; SIK3 ; Q9Y2K2 (Homo sapiens, UniProt Q9Y2K2).
Test [4] deals with Phosphatidylinositol 4-phosphate 3-kinase C2 domain-containing subunit ; PIK3C2B ; O00750 (Homo sapiens, UniProt O00750).
In test [5] the target is Adenylate kinase isoenzyme 6 ; AK6 ; Q9Y3D8 (Homo sapiens, UniProt Q9Y3D8).
Test [6] concerns the target Isoform 3 of Citron Rho-interacting kinase ; CIT ; O14578-3 (Homo sapiens, UniProt O14578).
The target of test [7] is TGF-beta receptor type-1 ; TGFBR1 ; P36897 (Homo sapiens, UniProt P36897).
The target in test [8] is Phosphorylase b kinase gamma catalytic chain, liver/testis isoform ; PHKG2 ; P15735 (Homo sapiens, UniProt P15735).
Sequence of Phosphorylase b kinase gamma catalytic chain, liver/testis isoform ; PHKG2 ; P15735 (P15735 whole entry, canonical isoform, one chain of several): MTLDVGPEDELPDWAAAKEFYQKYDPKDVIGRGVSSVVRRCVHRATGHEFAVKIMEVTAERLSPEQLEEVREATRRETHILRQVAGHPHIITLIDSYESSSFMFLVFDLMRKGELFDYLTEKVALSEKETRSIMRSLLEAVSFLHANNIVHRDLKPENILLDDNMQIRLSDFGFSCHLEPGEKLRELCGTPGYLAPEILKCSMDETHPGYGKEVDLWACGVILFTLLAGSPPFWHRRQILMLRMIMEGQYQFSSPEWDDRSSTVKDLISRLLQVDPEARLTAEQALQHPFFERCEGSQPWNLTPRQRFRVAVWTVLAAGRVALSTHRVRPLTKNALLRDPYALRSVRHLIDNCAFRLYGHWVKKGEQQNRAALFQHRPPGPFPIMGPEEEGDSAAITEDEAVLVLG
Test [9] concerns the target Isoform 2 of Proto-oncogene tyrosine-protein kinase Src ; SRC ; P12931-2 (Homo sapiens, UniProt P12931).
Test [10] concerns the target Ribosomal protein S6 kinase alpha-5 ; RPS6KA5 ; O75582 (Homo sapiens, UniProt O75582).
Test [11] has as its target Casein kinase I isoform epsilon ; CSNK1E ; P49674 (Homo sapiens, UniProt P49674).
Test [12] concerns the target Serine/threonine-protein kinase PAK 5 ; PAK5 ; Q9P286 (Homo sapiens, UniProt Q9P286).
Test [13] deals with RAC-beta serine/threonine-protein kinase ; AKT2 ; P31751 (Homo sapiens, UniProt P31751).
Sequence of RAC-beta serine/threonine-protein kinase ; AKT2 ; P31751 (P31751 whole entry, one chain of several): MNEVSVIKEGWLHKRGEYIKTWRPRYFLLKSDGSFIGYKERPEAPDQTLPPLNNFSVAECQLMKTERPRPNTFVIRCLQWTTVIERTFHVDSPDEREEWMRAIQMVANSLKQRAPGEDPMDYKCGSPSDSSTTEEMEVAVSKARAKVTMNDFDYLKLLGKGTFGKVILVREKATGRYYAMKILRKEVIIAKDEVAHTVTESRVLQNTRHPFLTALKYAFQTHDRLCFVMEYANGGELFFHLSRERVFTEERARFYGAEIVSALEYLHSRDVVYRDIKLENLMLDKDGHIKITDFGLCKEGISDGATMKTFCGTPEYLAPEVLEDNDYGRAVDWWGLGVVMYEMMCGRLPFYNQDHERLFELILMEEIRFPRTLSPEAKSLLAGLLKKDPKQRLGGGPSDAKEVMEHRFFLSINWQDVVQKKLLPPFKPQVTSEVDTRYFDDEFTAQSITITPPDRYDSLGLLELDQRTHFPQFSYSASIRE
Setting [14] is: read-out: BAY-1251152 (10 µM) / %Intensity relative to DMSO.
The mark [15] stands for this setting: read-out: BAY-1143572 (10 µM) / %Intensity relative to DMSO.

Sequence of Isoform 3 of Citron Rho-interacting kinase ; CIT ; O14578-3 (O14578 whole entry, canonical isoform): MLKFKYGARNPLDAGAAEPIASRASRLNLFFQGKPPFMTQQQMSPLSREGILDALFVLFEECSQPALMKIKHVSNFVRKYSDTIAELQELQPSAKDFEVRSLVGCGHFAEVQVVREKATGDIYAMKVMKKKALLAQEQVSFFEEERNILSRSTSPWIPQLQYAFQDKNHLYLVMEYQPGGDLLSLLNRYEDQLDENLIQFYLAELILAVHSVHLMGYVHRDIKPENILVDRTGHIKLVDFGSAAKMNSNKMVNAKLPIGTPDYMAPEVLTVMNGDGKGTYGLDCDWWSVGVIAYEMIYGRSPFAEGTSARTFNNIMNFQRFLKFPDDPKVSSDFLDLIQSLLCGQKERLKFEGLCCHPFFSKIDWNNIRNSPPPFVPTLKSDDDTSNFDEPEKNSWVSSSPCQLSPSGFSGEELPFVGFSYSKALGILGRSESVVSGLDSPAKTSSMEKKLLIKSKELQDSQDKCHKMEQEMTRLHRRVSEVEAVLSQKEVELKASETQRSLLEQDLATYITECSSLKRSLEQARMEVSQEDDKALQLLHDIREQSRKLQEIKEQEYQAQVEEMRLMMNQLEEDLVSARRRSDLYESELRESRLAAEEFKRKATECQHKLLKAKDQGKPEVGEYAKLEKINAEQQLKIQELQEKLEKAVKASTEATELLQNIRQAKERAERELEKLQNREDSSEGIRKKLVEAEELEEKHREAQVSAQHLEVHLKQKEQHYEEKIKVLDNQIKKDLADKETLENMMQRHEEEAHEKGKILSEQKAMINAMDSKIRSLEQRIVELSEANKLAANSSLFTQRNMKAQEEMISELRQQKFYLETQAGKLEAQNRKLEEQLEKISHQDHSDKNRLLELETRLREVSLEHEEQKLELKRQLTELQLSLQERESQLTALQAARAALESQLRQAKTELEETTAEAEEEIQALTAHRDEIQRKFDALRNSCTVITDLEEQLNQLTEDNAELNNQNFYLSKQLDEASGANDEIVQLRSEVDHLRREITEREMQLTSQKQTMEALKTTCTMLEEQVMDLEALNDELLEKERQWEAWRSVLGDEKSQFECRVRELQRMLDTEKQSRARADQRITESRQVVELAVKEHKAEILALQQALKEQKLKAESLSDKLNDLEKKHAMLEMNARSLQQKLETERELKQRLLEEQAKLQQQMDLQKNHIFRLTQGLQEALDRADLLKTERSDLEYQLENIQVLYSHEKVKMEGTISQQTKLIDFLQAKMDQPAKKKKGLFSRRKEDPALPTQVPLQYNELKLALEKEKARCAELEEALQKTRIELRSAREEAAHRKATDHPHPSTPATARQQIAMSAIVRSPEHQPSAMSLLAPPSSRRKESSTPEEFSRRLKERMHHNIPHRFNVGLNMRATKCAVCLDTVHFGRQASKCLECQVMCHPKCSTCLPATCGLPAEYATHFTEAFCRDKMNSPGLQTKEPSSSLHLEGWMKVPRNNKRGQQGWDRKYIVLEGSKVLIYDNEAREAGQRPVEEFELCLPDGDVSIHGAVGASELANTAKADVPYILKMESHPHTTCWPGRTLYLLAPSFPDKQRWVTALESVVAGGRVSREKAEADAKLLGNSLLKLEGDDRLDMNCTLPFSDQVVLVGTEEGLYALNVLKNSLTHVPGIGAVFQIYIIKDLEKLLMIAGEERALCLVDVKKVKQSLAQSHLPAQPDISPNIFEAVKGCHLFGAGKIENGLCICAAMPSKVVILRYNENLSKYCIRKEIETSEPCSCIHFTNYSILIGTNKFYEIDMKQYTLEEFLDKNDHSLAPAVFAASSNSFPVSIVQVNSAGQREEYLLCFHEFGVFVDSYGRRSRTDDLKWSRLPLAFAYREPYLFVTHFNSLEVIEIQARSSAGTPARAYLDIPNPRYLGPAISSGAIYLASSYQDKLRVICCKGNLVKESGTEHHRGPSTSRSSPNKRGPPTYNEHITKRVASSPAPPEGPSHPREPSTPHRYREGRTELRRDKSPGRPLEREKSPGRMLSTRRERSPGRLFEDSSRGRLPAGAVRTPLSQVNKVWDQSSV
Sequence of Casein kinase I isoform epsilon ; CSNK1E ; P49674 (P49674 whole entry, canonical isoform): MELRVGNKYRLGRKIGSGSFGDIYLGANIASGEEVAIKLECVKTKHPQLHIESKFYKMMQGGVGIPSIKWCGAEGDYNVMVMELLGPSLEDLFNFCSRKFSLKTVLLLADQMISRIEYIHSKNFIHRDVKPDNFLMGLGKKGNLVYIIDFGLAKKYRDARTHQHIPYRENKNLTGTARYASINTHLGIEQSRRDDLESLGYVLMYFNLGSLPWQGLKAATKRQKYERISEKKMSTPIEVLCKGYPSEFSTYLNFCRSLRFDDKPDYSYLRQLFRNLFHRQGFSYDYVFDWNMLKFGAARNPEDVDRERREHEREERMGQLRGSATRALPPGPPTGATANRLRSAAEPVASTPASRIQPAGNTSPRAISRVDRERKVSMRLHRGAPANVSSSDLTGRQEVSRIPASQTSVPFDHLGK
Sequence of Serine/threonine-protein kinase PAK 5 ; PAK5 ; Q9P286 (Q9P286 whole entry, one chain of several): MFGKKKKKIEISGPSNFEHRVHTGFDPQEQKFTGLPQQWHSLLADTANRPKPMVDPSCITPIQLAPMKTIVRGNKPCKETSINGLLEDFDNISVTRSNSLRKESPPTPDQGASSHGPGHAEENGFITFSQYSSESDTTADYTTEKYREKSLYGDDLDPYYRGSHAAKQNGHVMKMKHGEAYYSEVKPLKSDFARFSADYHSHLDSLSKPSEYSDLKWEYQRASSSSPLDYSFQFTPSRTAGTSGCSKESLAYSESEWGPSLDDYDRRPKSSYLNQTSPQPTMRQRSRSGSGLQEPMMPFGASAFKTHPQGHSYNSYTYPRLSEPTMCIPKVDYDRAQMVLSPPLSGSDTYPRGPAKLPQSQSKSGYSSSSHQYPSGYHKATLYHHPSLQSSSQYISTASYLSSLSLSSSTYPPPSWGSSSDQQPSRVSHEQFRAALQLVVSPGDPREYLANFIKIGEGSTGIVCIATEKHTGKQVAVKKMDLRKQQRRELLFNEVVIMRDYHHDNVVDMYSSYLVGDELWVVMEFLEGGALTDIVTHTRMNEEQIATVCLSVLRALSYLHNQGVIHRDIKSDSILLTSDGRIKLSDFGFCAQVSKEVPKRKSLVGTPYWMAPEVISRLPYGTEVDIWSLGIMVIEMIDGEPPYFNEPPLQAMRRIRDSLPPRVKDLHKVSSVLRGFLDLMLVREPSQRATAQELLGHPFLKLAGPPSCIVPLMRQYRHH
Sequence of Isoform 2 of Proto-oncogene tyrosine-protein kinase Src ; SRC ; P12931-2 (P12931 whole entry, canonical isoform): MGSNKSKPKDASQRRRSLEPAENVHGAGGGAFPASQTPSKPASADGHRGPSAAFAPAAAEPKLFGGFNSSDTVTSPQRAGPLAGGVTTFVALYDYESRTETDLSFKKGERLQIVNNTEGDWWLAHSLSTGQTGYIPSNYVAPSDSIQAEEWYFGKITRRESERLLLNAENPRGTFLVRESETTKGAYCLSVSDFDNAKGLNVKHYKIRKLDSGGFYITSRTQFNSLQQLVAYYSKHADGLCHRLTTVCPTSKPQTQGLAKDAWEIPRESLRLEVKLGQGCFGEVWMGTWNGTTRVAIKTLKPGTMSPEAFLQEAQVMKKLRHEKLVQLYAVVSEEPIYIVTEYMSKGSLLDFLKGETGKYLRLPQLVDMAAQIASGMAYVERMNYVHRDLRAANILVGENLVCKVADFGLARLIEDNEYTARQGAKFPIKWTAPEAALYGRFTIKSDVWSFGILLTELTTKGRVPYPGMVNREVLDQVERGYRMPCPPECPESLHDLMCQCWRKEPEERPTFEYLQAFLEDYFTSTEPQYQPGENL

Consider `COc1cc(F)ccc1-c1cc(Nc2cc(CS(C)(=N)=O)ccn2)ncc1F` (centres unmarked) [BAY-1251152], for which the remaining activity at 10 µM in [1] (setting [14]) came out at 108%; in test [2] (setting [14]) it was 65%; in [3] (setting [14]) it was 106%; in test [4] (setting [14]), 84.6%; in test [5] (setting [14]) it was 47.6%; in test [6] (setting [14]), 89.3%. The remaining activity at 10 µM in test [7] (setting [14]) was 114%; in test [8] (setting [14]), 100%; in test [9] (setting [14]), 112%; in test [10] (setting [14]) it was 110%; in test [11] (setting [14]), 101%; in [12] (setting [14]), 143%. In test [13] (setting [14]), the remaining activity at 10 µM was 119%.
For `COc1cc(F)ccc1-c1ncnc(Nc2cccc(C[S@](C)(=N)=O)c2)n1` [BAY-1143572], the remaining activity at 10 µM in [1] (setting [15]) was 91.7%; in [2] (setting [15]), 101%; in [3] (setting [15]) it was 109%; in [4] (setting [15]) it was 79.7%; in test [5] (setting [15]), 34.2%; in test [6] (setting [15]), 99.1%. Besides, the remaining activity at 10 µM in test [7] (setting [15]) is 115%; in test [8] (setting [15]) it was 107%; in test [9] (setting [15]), 102%; in test [10] (setting [15]), 109%; in [11] (setting [15]) it was 111%; in test [12] (setting [15]) it was 138%. Moreover, the remaining activity at 10 µM in test [13] (setting [15]) worked out at 117%.

These data come from article doi:10.1101/2024.08.13.607785v1 (biorxiv, 2024).
